Drawing on a melting point compilation (Tetko et al.), this text covers melting point for 125 compounds.

As a reminder, the melting point is the temperature of the solid-liquid transition.

Consider `CC(=CC(=O)O)c1ccccc1C`, for which the melting point was in the range of 81 to 83 °C.

`Cc1cn(-c2cccnc2)nc1N` displayed a melting point of 135 to 137 °C.

On to `CC(C)(C)C=CC(=O)O`, for which the melting point fell in the range of 60 to 62 °C.

The compound `Cc1ccc(C(=O)Nc2cccc(CN)c2)cc1` had a melting point of 131 to 133 °C.

Consider `Cc1ccc(C(=O)O)cc1S(=O)(=O)NC1CCCC1`, for which the melting point lay within 185 to 187 °C.

Turning to `COc1cc(C(=O)O)ccc1OC(C)=O`, the melting point was 144 to 146 °C.

The compound `O=C(O)CCN1C(=O)CSc2ccccc21` showed a melting point of 144 to 146 °C.

For the compound `Cc1c(C(=O)O)nnn1-c1ccc(OC(C)C)cc1`, the melting point lay within 159 to 161 °C.

With `CSc1cccc(Cl)c1C#N`, the melting point was in the range of 114 to 116 °C.

Turning to `CC(=O)NCc1ccc(C(=O)O)o1`, the melting point fell in the range of 171 to 173 °C.

For the compound `O=Cc1ccc(-c2ccc(Cl)cc2C(F)(F)F)s1`, the melting point lay in the range of 58 to 60 °C.

For `N#Cc1c(F)cccc1OC(F)F`, the melting point was 29 to 31 °C.

The compound `CNS(=O)(=O)c1cc(C(=O)O)c(C)o1` yielded a melting point of 154 to 156 °C.

The compound `COc1cccc(CN2C(=O)NC(=O)C2=O)c1` yielded a melting point of 139 to 141 °C.

In turn, `Cc1ccc(Cl)nc1CC(=O)O` displayed a melting point of 120 to 122 °C.

As for `CCNC1CCc2[nH]c3ccc(Cl)cc3c2C1` (stereo not given), the melting point was 174 to 176 °C.

Turning to `NC(=NO)c1ccc(N2CCN(c3ccc(F)cc3)CC2)nc1`, the melting point was in the range of 191 to 193 °C.

As to `NS(=O)(=O)Cc1ccc(Br)cc1`, the melting point was in the range of 191 to 193 °C.

As to `CN1CCN(C(=O)c2cc(N)ccn2)CC1`, the melting point lay in the range of 133 to 135 °C.

`CCOC(=O)Nc1nc2ccc(N)cc2s1`: the melting point fell in the range of 339 to 341 °C.

Take `O=C(O)c1cc([N+](=O)[O-])c[nH]1`: the melting point was in the range of 198 to 200 °C.

`COc1c(C(=O)O)cc(Cl)cc1[N+](=O)[O-]` showed a melting point of 161 to 163 °C.

The compound `Cc1ccc(S(=O)(=O)Cl)cc1Br` had a melting point of 69 to 71 °C.

Take `NS(=O)(=O)Cc1c(F)cccc1F`: the melting point was 153 to 155 °C.

`Cc1cc(C)c(NC(=O)CCl)c(C)c1` came in with a melting point of 153 to 157 °C.

In turn, `O=C(O)C=Cc1cscn1` showed a melting point of 174 to 176 °C.

With `COc1cc(F)c(C(C)=O)cc1OC`, the melting point is 92 to 94 °C.

With `Cc1oc(-c2ccc(Cl)cc2)nc1C(=O)O`, the melting point fell in the range of 235 to 237 °C.

With `CCOC(=O)c1sc(C(C)N)nc1C` (stereo not given), the melting point fell in the range of 53 to 55 °C.

`Cc1n[nH]c(O)c1C#N` came in with a melting point of 229 to 231 °C.

Take `BrCCCOc1ccc2c(c1)OCO2`: the melting point is 60 to 62 °C.

For the compound `CCNCc1cccc(NC(=O)c2cc(Cl)c[nH]2)c1`, the melting point fell in the range of 126 to 128 °C.

Turning to `NC(=O)CNC(=O)c1ccc(N)cc1`, the melting point lay within 216 to 218 °C.

With `Cn1nccc1CO`, the melting point was 58 to 60 °C.

In turn, `O=C(O)C1CC(=O)N(C2CCS(=O)(=O)C2)C1` (stereo not given) showed a melting point of 255 to 257 °C.

Turning to `COC(=O)Cc1c(C(=O)OC)sc(N)c1C(=O)OC`, the melting point fell in the range of 178 to 180 °C.

Consider `OCc1cnc2ccccc2c1`, for which the melting point was 82 to 84 °C.

In turn, `Nc1nc(-c2ccccn2)cs1` returned a melting point of 135 to 137 °C.

Regarding `CC(CC(=O)O)c1ccccc1Br` (stereo not given), the melting point was 61 to 63 °C.

`NS(=O)(=O)c1ccc2[nH]c(=O)c(=O)[nH]c2c1` registered a melting point of 372 to 374 °C.

On to `O=C(CCCl)NC(=O)NCc1ccccc1`, for which the melting point was 117 to 119 °C.

Regarding `Nc1nnc2ccccn12`, the melting point lay within 229 to 231 °C.

Regarding `CNc1nc(CC(C)=O)ns1`, the melting point was 298 to 300 °C.

`CCc1c(C(=O)O)cnn1C(C)(C)C` registered a melting point of 133 to 135 °C.

With `Cc1ccc(NC(=O)C(C)Cl)cc1F` (stereo not given), the melting point was 102 to 104 °C.

As to `O=S(=O)(c1ccccc1)c1ccc(O)cc1`, the melting point lay within 135 to 137 °C.

`CC1(C)CCC(CC(=O)O)CC1` yielded a melting point of 45 to 47 °C.

`CCOC(=O)c1c(C)n(Cc2ccccc2)c2ccc(O)cc12`: the melting point was 198 to 200 °C.

`Cc1c(Cl)cccc1NC(=O)CCl` registered a melting point of 71 to 74 °C.

In the case of `CN1C(=O)Cc2cc(S)ccc21`, the melting point lay within 104 to 106 °C.

As for `O=C(O)c1cccc(Nc2ncccn2)c1`, the melting point was 270 to 272 °C.

The compound `O=[N+]([O-])c1ccc(NCC2CCCO2)c(F)c1` (stereo not given) returned a melting point of 68 to 70 °C.

In turn, `Cc1ccc(C)c(Sc2ncccc2C(=O)O)c1` yielded a melting point of 188 to 190 °C.

`Cn1cc([N+](=O)[O-])ccc1=O` gave a melting point of 172 to 174 °C.

The compound `O=C(O)Cc1ccc(NC(=O)C2CCCC2)cc1` registered a melting point of 173 to 175 °C.

For the compound `Cc1n[nH]c(-c2ccccn2)n1`, the melting point fell in the range of 167 to 169 °C.

The compound `Cc1cc(N)n(CCO)n1` returned a melting point of 48 to 52 °C.

With `Cc1cc(NC(=O)C(C)Cl)on1` (stereo not given), the melting point fell in the range of 78 to 80 °C.

Turning to `CN(Cc1ccccc1)S(=O)(=O)c1ccc(N)cc1`, the melting point lay in the range of 127 to 131 °C.

`CN(C)Cc1nnc(S)o1` showed a melting point of 202 to 204 °C.

Consider `COCCCNc1c(N)n(CC(C)C)c(=O)[nH]c1=O`, for which the melting point lay in the range of 179 to 181 °C.

As to `Cc1nn(-c2ccccc2)c(C)c1NC(=O)C(C)Cl` (stereo not given), the melting point is 134 to 136 °C.

For `O=C1NC2(CCCCC2)C(=O)N1Cc1ccccc1`, the melting point is 151 to 153 °C.

In turn, `O=C(O)CCCSc1nc2ccccc2[nH]1` gave a melting point of 120 to 122 °C.

Take `Nc1ccc(Sc2ccccc2Cl)cc1`: the melting point was 77 to 79 °C.

The compound `COc1ccc(CNC(=O)OC(C)(C)C)c(OC)c1` came in with a melting point of 59 to 61 °C.

`CC(C)Cc1csc2nc(CC#N)[nH]c(=O)c12`: the melting point is 218 to 220 °C.

With `Clc1cc2nncn2cn1`, the melting point fell in the range of 111 to 113 °C.

`Cc1ccccc1Nc1nc2sc(C(=O)O)cc2s1`: the melting point was 232 to 234 °C.

`COCCOc1ccc(C#N)cc1`: the melting point lay in the range of 44 to 46 °C.

With `Nc1nc2ccc(C(F)(F)F)cc2[nH]1`, the melting point fell in the range of 134 to 136 °C.

In the case of `Nc1nc(Cl)nnc1Cl`, the melting point lay within 198 to 200 °C.

Compound `Fc1cc2nc(S)[nH]c2cc1F` gave a melting point of 291 to 293 °C.

`CNc1ccc(C#N)cc1F` gave a melting point of 76 to 78 °C.

Compound `CC(C)(C)OC(=O)N1CCOCC1C#N` (stereo not given) yielded a melting point of 95 to 97 °C.

`CCCCCCn1cc(S(=O)(=O)Cl)c(=O)[nH]c1=O` yielded a melting point of 157 to 159 °C.

`CCOC(=O)Nc1ccc(N)cc1` yielded a melting point of 73 to 75 °C.

`ClCc1nc(-c2ccccc2Cl)no1` came in with a melting point of 37 to 39 °C.

`O=c1ccc(-n2ccnc2)n[nH]1`: the melting point is 251 to 253 °C.

Consider `CC(C)c1cc(O)ncn1`, for which the melting point was in the range of 131 to 133 °C.

`Cc1cc(C(=O)C(C)Cl)c(C)n1-c1ccccc1` (stereo not given) came in with a melting point of 78 to 82 °C.

The compound `Cc1cc(N)n(-c2cccc(Br)c2)n1` gave a melting point of 145 to 147 °C.

In turn, `O=C(O)c1ccncc1N1CCOCC1` displayed a melting point of 201 to 203 °C.

On to `O=C(O)C(=Cc1ccco1)NC(=O)c1ccccc1`, for which the melting point was 209 to 211 °C.

As to `NC(=O)c1cccc2ncccc12`, the melting point fell in the range of 228 to 230 °C.

Compound `Cc1nn(C)c2ncc(SC(=O)N(C)C)cc12` returned a melting point of 144 to 146 °C.

Consider `CN(C(=O)c1ccc(N)cc1)C1CCOCC1`, for which the melting point fell in the range of 170 to 172 °C.

With `NCC(O)c1cccs1` (stereo not given), the melting point lay within 81 to 83 °C.

Consider `Nc1ccc(N2CCOCC2)c(S(=O)(=O)Nc2ccccc2Cl)c1`, for which the melting point was in the range of 219 to 221 °C.

For `O=C(O)C12CC3CC(CC(F)(C3)C1)C2`, the melting point fell in the range of 109 to 111 °C.

The compound `COC(=O)COc1ccc(C(=O)O)cc1OC` gave a melting point of 170 to 172 °C.

Consider `Brc1cncc(-c2ncc[nH]2)c1`, for which the melting point was in the range of 189 to 191 °C.

In the case of `Cc1ccc(-c2nc3ccccc3[nH]2)s1`, the melting point lay in the range of 259 to 261 °C.

For `O=c1ccc(=O)n(-c2ccc([N+](=O)[O-])cc2)[nH]1`, the melting point lay within 308 to 310 °C.

The compound `COc1cc(C)cc2c(C)c(C(C)N)oc12` (stereo not given) came in with a melting point of 56 to 58 °C.

Turning to `Cc1cccc(NC2=NC(=O)CS2)c1`, the melting point was 160 to 162 °C.

In turn, `O=C(O)Cn1[nH]c(=O)ccc1=O` yielded a melting point of 235 to 237 °C.

The compound `Sc1nc2cc(Br)cnc2[nH]1` yielded a melting point of 324 to 326 °C.

On to `CCNC(=O)N1CCc2ccc(N)cc21`, for which the melting point lay in the range of 134 to 136 °C.

For `O=C(O)c1cccc(CN2C(=O)c3ccccc3C2=O)c1`, the melting point lay within 202 to 212 °C.

In turn, `CCOC(=O)c1cnc2c(C)cc(Br)cc2c1Cl` showed a melting point of 101 to 103 °C.

In the case of `N#Cc1ccc(-n2cncn2)nc1`, the melting point lay within 203 to 205 °C.

`CC(C)CC(C(=O)O)N1CCCCC1=O` (stereo not given) showed a melting point of 182 to 184 °C.

For the compound `CNc1cc(F)ccc1[N+](=O)[O-]`, the melting point was 110 to 112 °C.

Take `CC(C)COC(C)C(N)=NO` (stereo not given): the melting point is 63 to 65 °C.

For `C/C(N)=C\C#N`, the melting point was 4 to 6 °C.

Turning to `O=C(O)c1ccccc1N1CCCC1=O`, the melting point is 197 to 199 °C.

In turn, `COc1nc(Cl)nc(Cl)n1` yielded a melting point of 89 to 91 °C.

Turning to `O=C(O)c1sc2cc(Cl)cc(Cl)c2c1Cl`, the melting point lay within 248 to 250 °C.

With `O=C(O)c1cccc(S)c1`, the melting point fell in the range of 144 to 147 °C.

`Nc1nonc1C(=O)N1CCCCC1` had a melting point of 86 to 88 °C.

As to `CS(=O)(=O)CCC(Cc1cccc(Br)c1)C(=O)O` (stereo not given), the melting point lay within 61 to 63 °C.

As for `CN1CCC(n2ncc3cc(Br)cnc32)CC1`, the melting point lay within 120 to 122 °C.

Compound `N#CCCNC(=O)CCl` gave a melting point of 96 to 98 °C.

Regarding `NCc1cccnc1N1CCOCC1`, the melting point is 41 to 43 °C.

As to `Cc1cc(Cn2cc(Br)cn2)oc1C(=O)O`, the melting point was 122 to 124 °C.

Consider `CC(C)c1noc(-c2cc(Cl)ccc2N)n1`, for which the melting point is 93 to 95 °C.

Take `O=C(O)c1ccccc1OC1CCCCC1`: the melting point was in the range of 86 to 88 °C.

In the case of `O=C(O)CC(n1cnc2sccc2c1=O)C(F)(F)F` (stereo not given), the melting point fell in the range of 188 to 190 °C.

`O=C(O)c1occc1CN1CCOCC1`: the melting point was in the range of 184 to 186 °C.

For `CSCCC(NC(N)=O)C(=O)O` (stereo not given), the melting point lay in the range of 141 to 143 °C.

Regarding `COC(=O)c1sccc1O`, the melting point was in the range of 49 to 51 °C.

For the compound `O=C(O)CNC(=O)c1c[nH]c(=O)[nH]c1=O`, the melting point was in the range of 301 to 303 °C.

`O=C1CNC2(CCCCC2)C(=O)N1` gave a melting point of 184 to 186 °C.

`C#Cc1cccc(NC(N)=O)c1`: the melting point fell in the range of 153 to 155 °C.
